Laboratory results from patent US8815565B2, “Method for culturing mycoplasma contamination-free cells and method for removing mycoplasma contamination of cells” (Cellsafe Co., Ltd., priority 2010, dated 2014).

Test system: cell lines NIH3T3, HepG2, and Raw 264.7 contaminated with mycoplasma
Experiment: Removing mycoplasma from contaminated cell lines with AM3, PCR with mycoplasma diagnosis kit
Format: cell-based
Settings: 20 μg/ml, two 3-day cultures; NIH3T3, HepG2, Raw 264.7
Description: Various cell lines constructed in laboratories of colleges located in Seoul were obtained. The obtained cell lines were cultured in a DMEM (GIBCO BRL, Cat. No. 12800-058) for 3 days, and then the cells were harvested. PCR was performed thereon with a mycoplasma diagnosis kit (Promokine, Germany; Cellsafe Co., Ltd., Korea) according to the enclosed protocol. The resulting PCR products were electrophoresed on a 1% agarose gel to measure the mycoplasma contamination. As a result, it was confirmed that three cell strains, i.e., NIH3T3, HepG2, Raw 264.7 cell lines, were infected with mycoplasma (see FIG. 1).
(§1) The cell lines NIH3T3, HepG2, and Raw 264.7, which were confirmed to be contaminated with mycoplasma, were each inoculated at a concentration of 1×10^6 cells on a T-75 culture flask (NUNC, Cat. No. 156367). DMEM (GIBCO BRL, Cat. No. 12800-058) containing 10% or less of serum (GIBCO BRL, Cat. No. 10082-147) was added thereto, followed by culturing for 3 days.
as §1, with “thereto and then 20 μg/ml of amphidinol” for “thereto, followed by culturing for”, “(AM3) was added thereto. […]” for “days.”

C=C/C=C/CC/C=C/C=C/C=C/CC/C=C/C(O)C(O)C1OC(C(O)C(O)C(=C)CCC(O)C2CC(O)C(O)C(C(O)C(O)/C=C(\C)CCC(O)CC(O)C(O)C(C)CC(O)C(O)CCCCCC(O)CCCC(O)/C=C/CC(O)/C=C/CC(O)CO)O2)CC(O)C1O (stereo not shown) [AM3, amphidinol 3]
mycoplasma contamination: completely removed
